The results in this text go back to ChEMBL document CHEMBL5380844, “Discovery of a Novel, Potent, Orally Active, and Safe Inhibitor Targeting Human Mitochondrial RNA Polymerase” (J Med Chem, 2023).

The structures appear in SMILES notation.

One experiment relates to A2780. The experiment in a line: Antiproliferative activity against human A2780 cells incubated for 168 hrs by SRB method. The format is functional, cell-based. The following applies: A2780, 168 h.
The nature of experiment [1]: Inhibition of ND1 transcript level in human A2780 cells at 500 nM measured after 12 hrs by RT-qPCR analysis relative to control. The format is functional. (In general: Real-time PCR tracks product formation cycle by cycle.)

Regarding `C[C@@H](Oc1ccc2c(-c3ccc(F)cc3Cl)coc2c1)C(=O)N1CCC[C@H](C(=O)O)C1`, the IC50 in the experiment with A2780 is above 10000 nM. For the same compound, the inhibition at 0.5 µM in experiment [1] worked out at 105%.
For `C[C@@H](Oc1ccc2c(-c3ccncc3)cc(=O)oc2c1)C(=O)N1CC2CCC(C1)N2` the same measures were 832 nM and 78%.
The like results for `Cc1cc(Cl)ccc1-c1cc(=O)oc2cc(O[C@H](C)C(=O)N3CC4CCC(C3)N4)ccc12` were, in that order, 58 nM and 12%.
The like results for `C[C@@H](Oc1ccc2c(-c3ccc(F)cc3Cl)cc(=O)oc2c1)C(=O)NCCO` were, in that order, 135 nM and 23%.
In turn, `O=C(O)[C@H]1CCCN(C(=O)C2(Oc3ccc4c(-c5ccc(F)cc5Cl)cc(=O)oc4c3)CCC2)C1` returned an IC50 in the experiment on A2780 of 692 nM. Besides, the inhibition at 0.5 µM in experiment [1] was 42%.
The like results for `C[C@@H](Oc1ccc2c(-c3ccc(F)cc3Cl)cc(=O)oc2c1)C(=O)NCCN1CCOCC1` were, in that order, 1220 nM and 82%.
For the compound `C[C@@H](Oc1ccc2c(-c3cc4ccccc4s3)cc(=O)oc2c1)C(=O)N1CC2CCC(C1)N2`, the 50% inhibitory concentration (IC50) in the experiment on A2780 worked out at 1620 nM. The inhibition at 0.5 µM in experiment [1] worked out at 85%.
The like results for `C[C@H](Oc1ccc2c(-c3ccc(F)cc3Cl)cc(=O)oc2c1)C(=O)N1CCC[C@H](C(=O)O)C1` were, in that order, 287 nM and 34%.
For `C[C@@H](Oc1ccc2c(-c3ccc(F)cc3Cl)cc(=O)oc2c1)C(=O)N1CC2CC(C1)N2` the same measures were 112 nM and 24%.
The like results for `CC(C)(Oc1ccc2c(-c3ccc(F)cc3Cl)cc(=O)oc2c1)C(=O)N1CCC[C@H](C(=O)O)C1` were, in that order, 562 nM and 43%.
As for `C[C@@H](Oc1ccc2c(-c3ccc(F)cc3Cl)cc(=O)oc2c1)C(=O)N1CCS(=O)(=O)CC1`, in the experiment with A2780, the IC50 came to 291 nM. In experiment [1], the inhibition at 0.5 µM stood at 35%.
The like results for `Cc1cc(C)c(-c2cc(=O)oc3cc(O[C@H](C)C(=O)N4CC5CCC(C4)N5)ccc23)c(C)c1` were, in that order, 74 nM and 16%.
Turning to `CC(=O)N1CCN(C(=O)[C@@H](C)Oc2ccc3c(-c4ccc(F)cc4Cl)cc(=O)oc3c2)CC1`, the IC50 in the experiment on A2780 was found to be 225 nM. In addition, the inhibition at 0.5 µM in experiment [1] stood at 27%.
The like results for `CC(=O)NCCNC(=O)[C@@H](C)Oc1ccc2c(-c3ccc(F)cc3Cl)cc(=O)oc2c1` were, in that order, 181 nM and 26%.
For `C[C@@H](Oc1ccc2c(-c3ccc(F)cc3Cl)cc(=O)oc2c1)C(=O)NCCC1CCOCC1` the same measures were 822 nM and 73%.
Regarding `C[C@@H](Oc1ccc2c(-c3ccccc3)cc(=O)oc2c1)C(=O)N1CC2CCC(C1)N2`, in the experiment on A2780, the concentration for half-maximal inhibition (IC50) is 423 nM. For the same compound, in experiment [1], the inhibition at 0.5 µM was determined as 43%.
The like results for `Cc1ccc(-c2cc(=O)oc3cc(O[C@H](C)C(=O)N4CC5CCC(C4)N5)ccc23)c(Cl)c1` were, in that order, 131 nM and 28%.
`C[C@@H](Oc1ccc2c(-c3ccc(F)cc3Cl)cccc2c1)C(=O)N1CCC[C@H](C(=O)O)C1` came in with a half-maximal inhibitory concentration (IC50) in the experiment on A2780 of 652 nM. In addition, in experiment [1], the inhibition at 0.5 µM was 45%.
The like results for `Cc1cccc(-c2cc(=O)oc3cc(O[C@H](C)C(=O)N4CC5CCC(C4)N5)ccc23)c1` were, in that order, 125 nM and 25%.
The like results for `C[C@@H](Oc1ccc2c(-c3ccc(F)cc3Cl)cc(=O)oc2c1)C(=O)N1CCOCC1` were, in that order, 93 nM and 25%.
On to `C[C@@H](Oc1ccc2c(-c3ccc(F)cc3Cl)cc(=O)[nH]c2c1)C(=O)N1CCC[C@H](C(=O)O)C1`, for which, in the experiment with A2780, the IC50 was above 10000 nM. Moreover, the inhibition at 0.5 µM in experiment [1] came out at 88%.
For `C[C@@H](Oc1ccc2c(-c3ccc(F)cc3Cl)csc2c1)C(=O)N1CCC[C@H](C(=O)O)C1` the same measures were above 10000 nM and 89%.
Regarding `O=C(O)[C@H]1CCCN(C(=O)COc2ccc3c(-c4ccc(F)cc4Cl)cc(=O)oc3c2)C1`, inhibition with A2780 was half-maximal at 373 nM (IC50). Further, the inhibition at 0.5 µM in experiment [1] turned out to be 39%.
In the experiment on A2780, `C[C@@H](Oc1ccc2c(-c3ccc(F)cc3Cl)cc(=O)oc2c1)C(=O)Nc1ccccn1` displayed an IC50 of 894 nM. Besides, in experiment [1], the inhibition at 0.5 µM was determined as 77%.
The like results for `C[C@@H](Oc1ccc2c(-c3ccc(F)cc3Cl)cc(=O)oc2c1)C(=O)N1C2CCC1CNC2` were, in that order, 65 nM and 15%.
The like results for `C[C@@H](Oc1ccc2c(-c3ccc(F)cc3Cl)cc(=O)oc2c1)C(=O)NCCCO` were, in that order, 178 nM and 22%.
For `O=C(O)[C@H]1CCCN(C(=O)C2CC(Oc3ccc4c(-c5ccc(F)cc5Cl)cc(=O)oc4c3)C2)C1` (stereo not given in full) the same measures were above 10000 nM and 101%.
For the compound `C[C@@H](Oc1ccc2c(-c3ccc(F)cc3Cl)ncnc2c1)C(=O)N1CCC[C@H](C(=O)O)C1`, the IC50 in the experiment with A2780 was above 10000 nM. For the same compound, the inhibition at 0.5 µM in experiment [1] came out at 93%.
As for `C[C@@H](Oc1ccc2c(-c3ccsc3)cc(=O)oc2c1)C(=O)N1CC2CCC(C1)N2`, in the experiment with A2780, the midpoint of inhibition, the IC50, lay at 129 nM. The inhibition at 0.5 µM in experiment [1] turned out to be 24%.
For `Cc1ccc(-c2cc(=O)oc3cc(O[C@H](C)C(=O)N4CC5CCC(C4)N5)ccc23)cc1` the same measures were 62 nM and 11%.
In the experiment on A2780, `Cc1cc(F)ccc1-c1cc(=O)oc2cc(O[C@H](C)C(=O)N3CC4CCC(C3)N4)ccc12` gave a 50% inhibitory concentration (IC50) of 42 nM. Besides, in experiment [1], the inhibition at 0.5 µM was determined as 12%.
For `C[C@@H](Oc1ccc2c(-c3ccc(F)cc3Cl)cc(=O)oc2c1)C(=O)NCCN(C)C` the same measures were 200 nM and 31%.
Regarding `C[C@@H](Oc1ccc2c(-c3ccc(F)cc3Cl)cc(=O)oc2c1)C(=O)Nc1ncco1`, in the experiment with A2780, 1220 nM corresponded to half-maximal inhibition (IC50). For the same compound, in experiment [1], the inhibition at 0.5 µM came to 81%.
For `C[C@@H](Oc1ccc2c(-c3ccc(Cl)cc3Cl)cc(=O)oc2c1)C(=O)N1CC2CCC(C1)N2` the same measures were 56 nM and 24%.
`C[C@@H](CO)NC(=O)[C@@H](C)Oc1ccc2c(-c3ccc(F)cc3Cl)cc(=O)oc2c1`: the IC50 with A2780 stood at 208 nM. Moreover, the inhibition at 0.5 µM in experiment [1] is 32%.
`C[C@@H](Oc1ccc2c(-c3ccc(F)cc3Cl)cc(=O)oc2c1)C(=O)N1CCC[C@H]1CO`: in the experiment on A2780, the concentration for half-maximal inhibition (IC50) was 432 nM. The inhibition at 0.5 µM in experiment [1] worked out at 42%.
The like results for `Cc1ccccc1-c1cc(=O)oc2cc(O[C@H](C)C(=O)N3CC4CCC(C3)N4)ccc12` were, in that order, 31 nM and 8%.
The like results for `COCCNC(=O)[C@@H](C)Oc1ccc2c(-c3ccc(F)cc3Cl)cc(=O)oc2c1` were, in that order, 152 nM and 25%.
Take `C[C@@H](Oc1ccc2c(-c3ccc(F)cc3Cl)cc(=O)oc2c1)C(=O)N1CCNCC1`: the concentration for half-maximal inhibition (IC50) in the experiment with A2780 came out at 123 nM. For the same compound, the inhibition at 0.5 µM in experiment [1] turned out to be 25%.
In the experiment with A2780, `C[C@@H](Oc1ccc2c(-c3ccccc3Cl)cc(=O)oc2c1)C(=O)N1CC2CCC(C1)N2` came in with an IC50 of 52 nM. In addition, the inhibition at 0.5 µM in experiment [1] was found to be 15%.
As to `C[C@@H](Oc1ccc2c(-c3ccc(F)cc3Cl)cc(=O)oc2c1)C(=O)NCCN1CCS(=O)(=O)CC1`, the half-maximal inhibitory concentration (IC50) in the experiment with A2780 came to 2520 nM. Further, the inhibition at 0.5 µM in experiment [1] was determined as 86%.
Regarding `C[C@@H](Oc1ccc2c(-c3cccc(F)c3)cc(=O)oc2c1)C(=O)N1CC2CCC(C1)N2`, the half-inhibitory concentration (IC50) in the experiment on A2780 stood at 866 nM. Besides, the inhibition at 0.5 µM in experiment [1] stood at 75%.
For the compound `C[C@@H](Oc1ccc(C(=O)c2ccc(F)cc2Cl)cc1)C(=O)N1CCC[C@H](C(=O)O)C1`, the IC50 in the experiment on A2780 was above 10000 nM. Also, the inhibition at 0.5 µM in experiment [1] amounted to 99%.
As to `C[C@@H](Oc1ccc2c(C34C[C@H]5C[C@H](C3)C[C@@H](C4)C5)cc(=O)oc2c1)C(=O)N1CC2CCC(C1)N2`, in the experiment on A2780, the 50% inhibitory concentration (IC50) stood at 92 nM. In experiment [1], the inhibition at 0.5 µM turned out to be 22%.
Turning to `C[C@@H](Oc1ccc2c(-c3ccc(F)cc3Cl)cc(=O)oc2c1)C(=O)NCCN`, in the experiment on A2780, the IC50 stood at 282 nM. The inhibition at 0.5 µM in experiment [1] was 26%.
For `C[C@@H](Oc1ccc2c(-c3ccc(F)cc3Cl)cc(=O)oc2c1)C(=O)N1CC2(COC2)C1` the same measures were 758 nM and 68%.
The like results for `C[C@@H](Oc1ccc2c(-c3cccc(Cl)c3)cc(=O)oc2c1)C(=O)N1CC2CCC(C1)N2` were, in that order, 246 nM and 32%.
In the experiment with A2780, `C[C@@H](Oc1ccc2c(-c3ccc(F)cc3Cl)cc(=O)oc2c1)C(=O)NCc1ccco1` displayed a concentration for half-maximal inhibition (IC50) of 405 nM. Further, the inhibition at 0.5 µM in experiment [1] is 41%.
For `C[C@@H](Oc1ccc2c(-c3ccc(F)cc3)cc(=O)oc2c1)C(=O)N1CC2CCC(C1)N2` the same measures were 453 nM and 44%.
`CC(C)c1cc(=O)oc2cc(O[C@H](C)C(=O)N3CC4CCC(C3)N4)ccc12` yielded a 50% inhibitory concentration (IC50) with A2780 of 2230 nM. In addition, in experiment [1], the inhibition at 0.5 µM stood at 93%.
Turning to `C[C@@H](Oc1ccc2c(-c3ccc(F)cc3Cl)cc(=O)oc2c1)C(=O)N1CC2CCC(C1)N2`, the IC50 in the experiment with A2780 came to 43 nM. The inhibition at 0.5 µM in experiment [1] was 8%.
The like results for `C[C@@H](Oc1cccc(-c2ccc(F)cc2Cl)c1)C(=O)N1CCC[C@H](C(=O)O)C1` were, in that order, above 10000 nM and 95%.
Regarding `C[C@@H](Oc1ccc2c(C3CCCCC3)cc(=O)oc2c1)C(=O)N1CC2CCC(C1)N2`, half-maximal inhibition in the experiment with A2780 (IC50) required 252 nM. For the same compound, the inhibition at 0.5 µM in experiment [1] was found to be 31%.
In the experiment with A2780, `O=C(O)[C@H]1CCCN(C(=O)C(F)(F)Oc2ccc3c(-c4ccc(F)cc4Cl)cc(=O)oc3c2)C1` displayed a 50% inhibitory concentration (IC50) of 322 nM. The inhibition at 0.5 µM in experiment [1] was 37%.
For the compound `C[C@@H](Oc1ccc2c(-c3ccc(Cl)cc3)cc(=O)oc2c1)C(=O)N1CC2CCC(C1)N2`, in experiment [1], the inhibition at 0.5 µM stood at 24%.
`C[C@@H](Oc1ccc2c(-c3ccc(F)cc3Cl)cc(=O)oc2c1)C(=O)N1CCSCC1` registered an IC50 with A2780 of 302 nM. For the same compound, the inhibition at 0.5 µM in experiment [1] was determined as 34%.
As for `C[C@@H](Oc1ccc2c(ccn2-c2ccc(F)cc2Cl)c1)C(=O)N1CCC[C@H](C(=O)O)C1`, the IC50 with A2780 was above 10000 nM. Moreover, in experiment [1], the inhibition at 0.5 µM turned out to be 97%.
The like results for `C[C@@H](Oc1ccc2c(-c3ccccc3F)cc(=O)oc2c1)C(=O)N1CC2CCC(C1)N2` were, in that order, 216 nM and 33%.

A word on the IC50: it is the concentration that gives 50% inhibition. Lower therefore signals greater potency. The inhibition is the drop in the measured response relative to a control, in per cent.
